Assay results: paper PMC9120017, “Inhibition mechanism of the chloride channel TMEM16A by the pore blocker 1PBC” (Nature Communications, 2022)
Where two headings read alike, the source gives them in different places.

Target: T1, mouse TMEM16A mutant P595A (Mus musculus, UniProt Q8BHY3, P595A)
T1 construct: expressed in transfected cells; host or cells: HEK293T
T1 sequence (Q8BHY3 1-960 P595A): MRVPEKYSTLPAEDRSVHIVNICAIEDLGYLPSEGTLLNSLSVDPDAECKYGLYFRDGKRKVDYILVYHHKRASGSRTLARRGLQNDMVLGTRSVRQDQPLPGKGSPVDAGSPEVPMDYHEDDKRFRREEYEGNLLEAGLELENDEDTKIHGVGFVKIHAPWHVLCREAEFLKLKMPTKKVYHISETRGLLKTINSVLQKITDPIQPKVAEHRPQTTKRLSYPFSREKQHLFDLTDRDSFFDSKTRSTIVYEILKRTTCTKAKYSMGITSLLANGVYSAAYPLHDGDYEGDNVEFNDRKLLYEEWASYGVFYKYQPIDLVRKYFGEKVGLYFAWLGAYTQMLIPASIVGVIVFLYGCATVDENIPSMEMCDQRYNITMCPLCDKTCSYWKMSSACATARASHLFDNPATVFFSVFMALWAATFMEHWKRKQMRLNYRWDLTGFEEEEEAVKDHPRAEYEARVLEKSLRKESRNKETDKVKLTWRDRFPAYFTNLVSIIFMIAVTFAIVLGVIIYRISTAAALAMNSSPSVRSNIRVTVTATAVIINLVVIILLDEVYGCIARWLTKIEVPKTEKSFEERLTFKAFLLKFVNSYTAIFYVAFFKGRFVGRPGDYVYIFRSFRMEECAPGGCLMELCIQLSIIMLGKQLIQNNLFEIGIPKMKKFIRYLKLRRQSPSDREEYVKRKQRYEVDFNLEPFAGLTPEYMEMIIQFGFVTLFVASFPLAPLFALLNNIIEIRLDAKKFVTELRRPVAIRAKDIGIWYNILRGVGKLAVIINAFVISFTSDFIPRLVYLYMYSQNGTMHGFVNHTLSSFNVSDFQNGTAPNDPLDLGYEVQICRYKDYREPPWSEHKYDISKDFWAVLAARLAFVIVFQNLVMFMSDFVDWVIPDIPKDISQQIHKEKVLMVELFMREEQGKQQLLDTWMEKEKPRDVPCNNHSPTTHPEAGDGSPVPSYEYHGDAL
Test: Inside-out patch recording of 1PBC block, mutant P595A
Assay type: cell-based
Conditions: for remaining activity at 1 µM: 1PBC conc 1; for remaining activity at 1 µM / remaining activity at 3 µM / remaining activity at 10 µM / remaining activity at 30 µM: read-out: relative current in 1PBC (avr); for remaining activity at 3 µM: 1PBC conc 3; for remaining activity at 10 µM: 1PBC conc 10; for remaining activity at 30 µM: 1PBC conc 30
Experimental: HEK293T cells (ATCC CRL-1573) were maintained in Dulbecco’s modified Eagle’s medium (DMEM; Sigma-Aldrich) supplemented with 10 U ml^−1 penicillin, 0.1 mg ml^−1 streptomycin (Sigma-Aldrich), 2 mM L-glutamine (Sigma-Aldrich), and 10% FBS (Sigma-Aldrich) in a humidified atmosphere containing 5% CO2 at 37 °C. HEK293S GnTI^− cells (ATCC CRL-3022) were maintained in HyClone HyCell TransFx-H medium (GE Healthcare) supplemented with 10 U ml^−1 penicillin, 0.1 mg ml^−1 streptomycin, 4 mM L-glutamine, 0.15% poloxamer 188 (Sigma-Aldrich), and 1% FBS in an atmosphere containing 5% CO2 at 185 rpm at 37 °C. The ac splice variant of mouse TMEM16A (UniProt ID: Q8BHY3), mouse TMEM16B (UniProt ID: Q8CFW1), or mouse TMEM16F (UniProt ID: Q6P9J9) bearing a 3C cleavage site, a Venus YFP, a Myc tag, and a Streptavidin-binding peptide (SBP) downstream of the open reading frame in a modified pcDNA3.1 vector (Invitrogen) were used as described previously[21],[31]. Mutations were introduced using a modified QuikChange method[58] and were verified by sequencing.
HEK293T cells were transfected with 3–4 μg DNA per 6 cm Petri dish using the calcium phosphate co-precipitation method and were used within 24–96 h after transfection. Recordings were performed on inside-out patches excised from HEK293T cells expressing the construct of interest. Patch pipettes were pulled from borosilicate glass capillaries (O.D. 1.5 mm, I.D. 0.86 mm, Sutter Instrument) and were fire-polished with a microforge (Narishige) before use. Pipette resistance was typically 3–8 MΩ when filled with the recording solutions detailed below. Seal resistance was typically 4 GΩ or higher. Voltage-clamp recordings were made using Axopatch 200B, Digidata 1550, and Clampex 10.7 (Molecular Devices). Analog signals were filtered with the in-built 4-pole Bessel filter at 10 kHz and were digitized at 20 kHz. Solution exchange was achieved using a gravity-fed system through a theta glass pipette mounted on an ultra-fast piezo-driven stepper (Siskiyou). […] All recordings were performed at 20 °C.
A symmetrical ionic condition was used throughout. Stock solution with Ca^2+-EGTA contained 150 mM NaCl, 5.99 mM Ca(OH)2, 5 mM EGTA, and 10 mM HEPES at pH 7.40. Stock solution with EGTA contained 150 mM NaCl, 5 mM EGTA, and 10 mM HEPES at pH 7.40. Free Ca^2+ concentrations were adjusted by mixing the stock solutions at the required ratios calculated using the WEBMAXC program (http://web.stanford.edu/~cpatton/webmaxcS.htm). Patch pipettes were filled with the stock solution with Ca^2+-EGTA, which has a free Ca^2+ concentration of 1 mM. 1PBC (ChemBridge) stock was reconstituted in anhydrous DMSO (Sigma-Aldrich) at 100 mM and stored at −20 °C. Working solutions with 1PBC were prepared by serial dilution. Unless otherwise stated, experiments were performed at a saturating Ca^2+ concentration as shown in Supplementary Table 1 and the primary data were corrected for current rundown as described previously[21],[25].
Concentration-response relations, obtained from the ratio of the I-V plots before and after the application of the blocker, were fitted to the Hill equation,1 I/Imax=1/1+IC50/[blocker]^h where I/Imax is the normalized current responses, IC50 defines the concentration at which inhibition is at its half-maximum, and h is the Hill coefficient.

N#Cc1c(C(F)(F)F)cc(O)n2c1nc1ccccc12 [1PBC]
IC50 (0 mV, 2 µM Ca2+): 3.1 µM | remaining activity at 1 µM (0 mV): 75.3% | remaining activity at 3 µM (0 mV): 48.8% | remaining activity at 10 µM (0 mV): 25.9% | remaining activity at 30 µM (0 mV): 11.1% | IC50 (20 mV, 2 µM Ca2+): 2.46 µM | remaining activity at 1 µM (20 mV): 70.9% | remaining activity at 3 µM (20 mV): 43% | remaining activity at 10 µM (20 mV): 22.6% | remaining activity at 30 µM (20 mV): 8.98% | IC50 (40 mV, 2 µM Ca2+): 2 µM | remaining activity at 1 µM (40 mV): 66.5% | remaining activity at 3 µM (40 mV): 38.4% | remaining activity at 10 µM (40 mV): 19% | remaining activity at 30 µM (40 mV): 7.73% | IC50 (60 mV, 2 µM Ca2+): 1.75 µM | remaining activity at 1 µM (60 mV): 64.4% | remaining activity at 3 µM (60 mV): 34.6% | remaining activity at 10 µM (60 mV): 16.9% | remaining activity at 30 µM (60 mV): 7.56% | IC50 (80 mV, 2 µM Ca2+): 1.57 µM | remaining activity at 1 µM (80 mV): 61.3% | remaining activity at 3 µM (80 mV): 32.5% | remaining activity at 10 µM (80 mV): 15.9% | remaining activity at 30 µM (80 mV): 7.06% | IC50 (100 mV, 2 µM Ca2+): 1.48 µM | remaining activity at 1 µM (100 mV): 60.2% | remaining activity at 3 µM (100 mV): 31% | remaining activity at 10 µM (100 mV): 15.3% | remaining activity at 30 µM (100 mV): 6.31% | IC50 (120 mV, 2 µM Ca2+): 1.63 µM | remaining activity at 1 µM (120 mV): 64.3% | remaining activity at 3 µM (120 mV): 31.5% | remaining activity at 10 µM (120 mV): 15.7% | remaining activity at 30 µM (120 mV): 6.66% | IC50 (140 mV, 2 µM Ca2+): 1.91 µM | remaining activity at 1 µM (140 mV): 70.3% | remaining activity at 3 µM (140 mV): 33.2% | remaining activity at 10 µM (140 mV): 17.5% | remaining activity at 30 µM (140 mV): 7.54% | IC50 (-20 mV, 2 µM Ca2+): 3.88 µM | remaining activity at 1 µM (-20 mV): 79.6% | remaining activity at 3 µM (-20 mV): 54.6% | remaining activity at 10 µM (-20 mV): 29.2% | remaining activity at 30 µM (-20 mV): 13.3% | IC50 (-40 mV, 2 µM Ca2+): 4.91 µM | remaining activity at 1 µM (-40 mV): 84% | remaining activity at 3 µM (-40 mV): 59.7% | remaining activity at 10 µM (-40 mV): 33.9% | remaining activity at 30 µM (-40 mV): 15.9% | IC50 (-60 mV, 2 µM Ca2+): 5.83 µM | remaining activity at 1 µM (-60 mV): 87.1% | remaining activity at 3 µM (-60 mV): 62.7% | remaining activity at 10 µM (-60 mV): 37.7% | remaining activity at 30 µM (-60 mV): 18.7% | IC50 (-80 mV, 2 µM Ca2+): 7 µM | remaining activity at 1 µM (-80 mV): 88.8% | remaining activity at 3 µM (-80 mV): 67.8% | remaining activity at 10 µM (-80 mV): 41.3% | remaining activity at 30 µM (-80 mV): 21% | IC50 (-100 mV, 2 µM Ca2+): 8.19 µM | remaining activity at 1 µM (-100 mV): 90.4% | remaining activity at 3 µM (-100 mV): 70.3% | remaining activity at 10 µM (-100 mV): 45% | remaining activity at 30 µM (-100 mV): 24% | IC50 (-120 mV, 2 µM Ca2+): 9.33 µM | remaining activity at 1 µM (-120 mV): 92.2% | remaining activity at 3 µM (-120 mV): 72.9% | remaining activity at 10 µM (-120 mV): 47.9% | remaining activity at 30 µM (-120 mV): 26.1% | IC50 (-140 mV, 2 µM Ca2+): 10.5 µM | remaining activity at 1 µM (-140 mV): 93.8% | remaining activity at 3 µM (-140 mV): 75.4% | remaining activity at 10 µM (-140 mV): 50.3% | remaining activity at 30 µM (-140 mV): 28.4% | IC50 (P595A, V 0 mV): 3.1 µM | IC50 (P595A, V 20 mV): 2.46 µM | IC50 (P595A, V 40 mV): 2 µM | IC50 (P595A, V 60 mV): 1.75 µM | IC50 (P595A, V 80 mV): 1.57 µM | IC50 (P595A, V 100 mV): 1.48 µM | IC50 (P595A, V 120 mV): 1.63 µM | IC50 (P595A, V 140 mV): 1.91 µM | IC50 (P595A, V -20 mV): 3.88 µM | IC50 (P595A, V -40 mV): 4.91 µM | IC50 (P595A, V -60 mV): 5.83 µM | IC50 (P595A, V -80 mV): 7 µM | IC50 (P595A, V -100 mV): 8.19 µM | IC50 (P595A, V -120 mV): 9.33 µM | IC50 (P595A, V -140 mV): 10.5 µM
